Experimental data: patent US9371331B2, “Modulators of methyl modifying enzymes, compositions and uses thereof” (Constellation Pharmaceuticals, Inc., priority 2012, dated 2016)
Read-outs that look alike come from different tables or passages of the source.

Key:
Y641N EZH2 = Y641N EZH2 (Homo sapiens, UniProt Q15910, Y641N); test: Y641N EZH2 assay: as EZH2 assay, with reconstituted H3K27Me2 oligonucleosomes as substrate; format: biochemical
EZH2 (rPRC2) = EZH2 (rPRC2) (Homo sapiens, UniProt Q15910); test: EZH2 assay: rPRC2, biotinylated oligonucleosomes, 3H SAM methyl transfer (FlashPlate scintillation); format: biochemical; details: biotinylated oligonucleosome substrate
Chain of EZH2 (rPRC2) (Q15910 whole entry): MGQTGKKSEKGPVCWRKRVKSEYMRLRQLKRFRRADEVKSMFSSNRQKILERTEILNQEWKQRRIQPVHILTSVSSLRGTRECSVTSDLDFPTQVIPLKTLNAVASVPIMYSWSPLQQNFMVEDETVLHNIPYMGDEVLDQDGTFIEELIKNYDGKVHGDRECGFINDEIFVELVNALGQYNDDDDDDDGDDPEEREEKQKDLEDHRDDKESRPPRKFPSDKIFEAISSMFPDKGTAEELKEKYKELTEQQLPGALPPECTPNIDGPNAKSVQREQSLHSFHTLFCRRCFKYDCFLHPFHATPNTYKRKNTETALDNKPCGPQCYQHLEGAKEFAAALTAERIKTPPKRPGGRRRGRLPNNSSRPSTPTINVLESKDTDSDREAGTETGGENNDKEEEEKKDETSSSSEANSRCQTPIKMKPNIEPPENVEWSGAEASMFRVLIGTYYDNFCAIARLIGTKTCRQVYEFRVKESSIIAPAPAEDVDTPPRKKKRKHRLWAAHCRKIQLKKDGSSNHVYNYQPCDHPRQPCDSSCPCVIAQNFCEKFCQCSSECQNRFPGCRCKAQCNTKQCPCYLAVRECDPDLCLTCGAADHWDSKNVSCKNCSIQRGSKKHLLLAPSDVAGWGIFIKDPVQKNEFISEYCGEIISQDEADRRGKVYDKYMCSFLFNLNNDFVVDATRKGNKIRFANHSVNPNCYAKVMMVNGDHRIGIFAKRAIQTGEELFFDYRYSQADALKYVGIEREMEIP
Chain of EZH2 (rPRC2) (O75530 whole entry partner): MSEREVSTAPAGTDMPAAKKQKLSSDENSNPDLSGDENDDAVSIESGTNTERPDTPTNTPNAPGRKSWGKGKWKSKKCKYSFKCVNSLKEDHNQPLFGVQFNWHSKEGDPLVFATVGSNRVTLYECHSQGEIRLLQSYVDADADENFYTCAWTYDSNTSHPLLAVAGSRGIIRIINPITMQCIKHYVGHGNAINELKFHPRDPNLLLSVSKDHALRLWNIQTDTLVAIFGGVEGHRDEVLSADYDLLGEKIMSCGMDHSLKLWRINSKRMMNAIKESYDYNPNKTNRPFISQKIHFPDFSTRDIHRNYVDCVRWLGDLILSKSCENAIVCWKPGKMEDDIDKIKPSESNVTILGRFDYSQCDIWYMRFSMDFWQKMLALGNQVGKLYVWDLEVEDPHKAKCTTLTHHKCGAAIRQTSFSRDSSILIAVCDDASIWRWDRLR
Chain of EZH2 (rPRC2) (Q15022 whole entry partner): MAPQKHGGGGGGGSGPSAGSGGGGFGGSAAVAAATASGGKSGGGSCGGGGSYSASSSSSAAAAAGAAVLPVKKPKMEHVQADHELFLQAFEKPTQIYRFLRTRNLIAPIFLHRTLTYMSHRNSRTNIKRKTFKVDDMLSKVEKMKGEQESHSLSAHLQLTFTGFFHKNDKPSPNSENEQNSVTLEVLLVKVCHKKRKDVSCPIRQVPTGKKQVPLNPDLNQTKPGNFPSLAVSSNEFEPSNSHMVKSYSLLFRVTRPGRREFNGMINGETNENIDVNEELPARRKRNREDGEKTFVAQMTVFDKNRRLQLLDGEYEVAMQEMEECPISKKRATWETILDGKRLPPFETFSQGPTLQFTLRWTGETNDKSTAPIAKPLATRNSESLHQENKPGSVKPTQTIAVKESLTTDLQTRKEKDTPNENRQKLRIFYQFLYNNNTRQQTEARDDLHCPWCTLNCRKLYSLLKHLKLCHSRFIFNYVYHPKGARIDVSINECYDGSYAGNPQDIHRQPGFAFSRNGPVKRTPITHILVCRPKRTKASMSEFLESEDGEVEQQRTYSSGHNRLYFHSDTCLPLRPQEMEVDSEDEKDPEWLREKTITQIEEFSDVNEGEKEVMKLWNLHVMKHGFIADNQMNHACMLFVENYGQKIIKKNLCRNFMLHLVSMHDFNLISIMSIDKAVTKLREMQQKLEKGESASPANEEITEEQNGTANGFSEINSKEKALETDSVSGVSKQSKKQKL
Procedure: Assays were carried out by mixing rPRC2 together with biotinylated oligonucleosome substrates in the presence of the radio-labeled enzyme co-factor, S-adenosyl-1-methionine (^3H SAM) (Perkin Elmer) and monitoring the enzymatically mediated transfer of tritiated methyl groups from ^3H SAM to histone lysine residues. The amount of resulting tritiated methyl histone product was measured by first capturing the biotinylated oligonucleosomes in streptavidin (SAV) coated FlashPlates (Perkin Elmer), followed by a wash step to remove un-reacted ^3H SAM, and then counting on a TopCount NXT 384 well plate scintillation counter (Perkin Elmer). The final assay conditions for EZH2 were as follows: 50 mM Tris Buffer pH 8.5, 1 mM DTT, 69 μM Brij-35 detergent, 5.0 mM MgCl2, 0.1 mg/mL BSA, 0.2 μM ^3H SAM, 0.2 μM biotinylated oligonucleosomes, 3.6 μM H3K27 mc3 peptide and 2 nM EZH2.
A 12.5 μL volume of the HMT enzyme, H3K27me3 peptide and oligonucleosome substrate in assay buffer was added to each well of the assay plate using a Multidrop Combi (ThermoFisher). Compounds were pre-incubated with the enzyme for 20 min, followed by initiation of the methyltransferase reaction by addition of 12.5 μL of ^3H SAM in assay buffer (final volume=25 μL). The final concentrations of compounds ranged from a top default concentration of 80 μM down to 0.16 μM in ten 2-fold dilution steps. Reactions were carried out for 60 minutes and quenched with 20 μL per well of 1.96 mM SAH, 50 mM Tris pH 8.5, 200 mM EDTA. Stopped reactions were transferred to SAV coated Flashplates (Perkin Elmer), incubated for 120 min, washed with a plate washer, and then read on the TopCount NXT (1.0 min/well) to measure the amount of methyl histone product formed during the reaction.

[1] = Y641N EZH2 IC50, Y641N mutant EZH2, H3K27Me2 oligonucleosome substrate
[2] = EZH2 IC50, wild-type EZH2 (rPRC2)
[3] = Y641N mutant EZH2, H3K27Me2 oligonucleosome substrate, read-out: Y641N EZH2 IC50
[4] = wild-type EZH2 (rPRC2), read-out: EZH2 IC50

Chain of Y641N EZH2 (Q15910 whole entry Y641N): as the sequence (Q15910 whole entry) above, with Y641N counted along it
Chain of Y641N EZH2 (O75530 whole entry partner): as the sequence (O75530 whole entry partner) above
Chain of Y641N EZH2 (Q15022 whole entry partner): as the sequence (Q15022 whole entry partner) above

`CCC(OC)C(C)n1c(C)c(C(=O)NCc2c(C)cc(C)[nH]c2=O)c2ccccc21` (racemic) [Compound 275, (±)-N-((4,6-dimethyl-2-oxo-1,2-dihydropyridin-3-yl)methyl)-1-(3-methoxypentan-2-yl)-2-methyl-1H-indole-3-carboxamide] was tested, and the IC50 (Y641N EZH2; [1]) was < 100 nM and the IC50 (EZH2 (rPRC2); [2]) was < 100 nM.
In the case of `Cc1cc(C)c(CNC(=O)c2c(C)n(C(C)C3CC3)c3ncccc23)c(=O)[nH]1` (single isomer, unassigned) [Compound 252, (R or S)-(±)-1-(1-cyclopropylethyl)-N-((4,6-dimethyl-2-oxo-1,2-dihydropyridin-3-yl)methyl)-2-methyl-1H-pyrrolo[2,3-b]pyridine-3-carboxamide], the IC50 (Y641N EZH2; [1]) is reported as 100 to 1000 nM and the IC50 (EZH2 (rPRC2); [2]) is reported as < 100 nM.
Compound `Cc1cc(C)c(CNC(=O)c2c(C)n(C(C)Cn3cccn3)c3ncccc23)c(=O)[nH]1` (racemic) [Compound 221, (±)-1-(1-(1H-pyrazol-1-yl)propan-2-yl)-N-((4,6-dimethyl-2-oxo-1,2-dihydropyridin-3-yl)methyl)-2-methyl-1H-pyrrolo[2,3-b]pyridine-3-carboxamide] has an IC50 (Y641N EZH2; [3]) of 1000 to 10000 nM and an IC50 (EZH2 (rPRC2); [4]) of 100 to 1000 nM.
`CC[C@@H](C)n1c(C)c(C(=O)NCc2c(C)cc(C)[nH]c2=O)c2cnc(C)nc21` [Compound 200, (R)-7-(sec-butyl)-N-((4,6-dimethyl-2-oxo-1,2-dihydropyridin-3-yl)methyl)-2,6-dimethyl-7H-pyrrolo[2,3-d]pyrimidine-5-carboxamide] showed an IC50 (Y641N EZH2; [1]) of 1000 to 10000 nM and an IC50 (EZH2 (rPRC2); [2]) of 100 to 1000 nM.
With `COc1cc(C)[nH]c(=O)c1CNC(=O)c1c(C)n(C(C)C2COCCO2)c2ccccc12` (stereo not shown) [Compound 348, 1-(1-(1,4-dioxan-2-yl)ethyl)-N-((4-methoxy-6-methyl-2-oxo-1,2-dihydropyridin-3-yl)methyl)-2-methyl-1H-indole-3-carboxamide] the IC50 (Y641N EZH2; [1]) was < 100 nM and the IC50 (EZH2 (rPRC2); [2]) was < 100 nM.
For `CC[C@@H](C)n1c(C)c(C(=O)NCc2c(C)cc(C)[nH]c2=O)c2cnc(C(=O)NC)nc21` [Compound 198, (R)-7-(sec-butyl)-N5-((4,6-dimethyl-2-oxo-1,2-dihydropyridin-3-yl)methyl)-N2,6-dimethyl-7H-pyrrolo[2,3-d]pyrimidine-2,5-dicarboxamidc], the IC50 (Y641N EZH2; [3]) was 1000 to 10000 nM and the IC50 (EZH2 (rPRC2); [4]) was 1000 to 10000 nM.
`COc1cc(C)[nH]c(=O)c1CNC(=O)c1c(C)n(C(C)CC#N)c2ncccc12` (racemic) [Compound 301, (±)-1-(1-cyanopropan-2-yl)-N-((4-methoxy-6-methyl-2-oxo-1,2-dihydropyridin-3-yl)methyl)-2-methyl-1H-pyrrolo[2,3-b]pyridine-3-carboxamide] was tested, and the IC50 (Y641N EZH2; [1]) was 100 to 1000 nM and the IC50 (EZH2 (rPRC2); [2]) was < 100 nM.
Compound `COc1cc(C)[nH]c(=O)c1CNC(=O)c1c(C)n(C(C)C#N)c2ncccc12` (racemic) [Compound 214, (±)-1-(1-cyanoethyl)-N-((4-methoxy-6-methyl-2-oxo-1,2-dihydropyridin-3-yl)methyl)-2-methyl-1H-pyrrolo[2,3-b]pyridine-3-carboxamide] has an IC50 (Y641N EZH2; [1]) of 1000 to 10000 nM and an IC50 (EZH2 (rPRC2); [2]) of 100 to 1000 nM.
In the case of `Cc1cc(C)c(CNC(=O)c2c(C)n(C(C)c3ccccc3)c3cnccc23)c(=O)[nH]1` (single isomer, unassigned) [Compound 248, (R or S)—N-((4,6-dimethyl-2-oxo-1,2-dihydropyridin-3-yl)methyl)-2-methyl-1-(1-phenylethyl)-1H-pyrrolo[2,3-c]pyridine-3-carboxamide], the IC50 (Y641N EZH2; [1]) is reported as 100 to 1000 nM and the IC50 (EZH2 (rPRC2); read-out: EZH2 IC50, wild-type EZH2 (rPRC2)) is reported as < 100 nM.
Work on `COCC(C)n1c(C)c(C(=O)NCc2c(OC)cc(C)[nH]c2=O)c2cccnc21` (single isomer, unassigned) [Compound 257, (R or S)-N-((4-methoxy-6-methyl-2-oxo-1,2-dihydropyridin-3-yl)methyl)-1-(1-methoxypropan-2-yl)-2-methyl-1H-pyrrolo[2,3-b]pyridine-3-carboxamide] yielded an IC50 (Y641N EZH2; [1]) of 1000 to 10000 nM and an IC50 (EZH2 (rPRC2); [2]) of 100 to 1000 nM.
With `COc1cc(C)[nH]c(=O)c1CNC(=O)c1c(C)n(C2CCN(C(=O)OC(C)(C)C)CC2)c2ccccc12` [Compound 331, tert-butyl 4-(3-(((4-methoxy-6-methyl-2-oxo-1,2-dihydropyridin-3-yl)methyl)carbamoyl)-2-methyl-1H-indol-1-yl)piperidine-1-carboxylate] the IC50 (Y641N EZH2; [1]) was 100 to 1000 nM and the IC50 (EZH2 (rPRC2); [2]) was < 100 nM.
With `COc1cc(C)[nH]c(=O)c1CNC(=O)c1c(C)n(C(C)C(C)S(C)(=O)=O)c2ccccc12` (stereo not shown) [Compound 350, N-((4-methoxy-6-methyl-2-oxo-1,2-dihydropyridin-3-yl)methyl)-2-methyl-1-(3-(methylsulfonyl)butan-2-yl)-1H-indole-3-carboxamide] the IC50 (Y641N EZH2; [1]) was < 100 nM and the IC50 (EZH2 (rPRC2); [2]) was < 100 nM.
With `Cc1cc(C)c(CNC(=O)c2c(C)n(C(C)c3cccc(C(N)=O)c3)c3ccccc23)c(=O)[nH]1` (single isomer, unassigned) [Compound 225, (R or S)-1-(1-(3-carbamoylphenyl)ethyl)-N-((4,6-dimethyl-2-oxo-1,2-dihydropyridin-3-yl)methyl)-2-methyl-1H-indole-3-carboxamide] the IC50 (Y641N EZH2; [1]) was < 100 nM and the IC50 (EZH2 (rPRC2); [2]) was < 100 nM.
Work on `Cc1cc(C)c(CNC(=O)c2c(C)n([C@H](C)c3ccccc3)c3nc(C4CCOCC4)ncc23)c(O)n1` [Compound 168, (R)-N-((2-hydroxy-4,6-dimethylpyridin-3-yl)methyl)-6-methyl-7-(1-phenylethyl)-2-(tetrahydro-2H-pyran-4-yl)-7H-pyrrolo[2,3-d]pyrimidine-5-carboxamide] yielded an IC50 (Y641N EZH2; [3]) of 1000 to 10000 nM and an IC50 (EZH2 (rPRC2); [4]) of 100 to 1000 nM.
In the case of `Cc1cc(C)c(CNC(=O)c2c(C)n(C(C)c3ccccc3)c3cnccc23)c(=O)[nH]1` (single isomer, unassigned) [Compound 247, (R or S)—N-((4,6-dimethyl-2-oxo-1,2-dihydropyridin-3-yl)methyl)-2-methyl-1-(1-phenylethyl)-1H-pyrrolo[2,3-c]pyridine-3-carboxamide], the IC50 (Y641N EZH2; [1]) is reported as < 100 nM and the IC50 (EZH2 (rPRC2); [2]) is reported as < 100 nM.
`COc1cc(C)[nH]c(=O)c1CNC(=O)c1c(C)n(C(C)C(C)OC)c2ccccc12` (single isomer, unassigned) [Compound 307, Trans-(R or S, R or S)-N-((4-methoxy-6-methyl-2-oxo-1,2-dihydropyridin-3-yl)methyl)-1-(3-methoxybutan-2-yl)-2-methyl-1H-indole-3-carboxamide] was tested, and the IC50 (Y641N EZH2; [1]) was < 100 nM and the IC50 (EZH2 (rPRC2); [2]) was < 100 nM.
`CC[C@@H](C)n1c(C)c(C(=O)NCc2c(C)cc(C)[nH]c2=O)c2cnc(Cl)nc21` [Compound 184, (R)-7-(sec-butyl)-2-chloro-N-((4,6-dimethyl-2-oxo-1,2-dihydropyridin-3-yl)methyl)-6-methyl-7H-pyrrolo[2,3-d]pyrimidine-5-carboxamide] was tested, and the IC50 (Y641N EZH2; [1]) was 1000 to 10000 nM and the IC50 (EZH2 (rPRC2); [2]) was 100 to 1000 nM.
Work on `COc1nccc(C(C)n2c(C)c(C(=O)NCc3c(OC)cc(C)[nH]c3=O)c3cccnc32)n1` (racemic) [Compound 232, (±)-N-((4-methoxy-6-methyl-2-oxo-1,2-dihydropyridin-3-yl)methyl)-1-(1-(2-methoxypyrimidin-4-yl)ethyl)-2-methyl-1H-pyrrolo[2,3-b]pyridine-3-carboxamide] yielded an IC50 (Y641N EZH2; [1]) of 1000 to 10000 nM and an IC50 (EZH2 (rPRC2); [2]) of 100 to 1000 nM.
`Cc1cc(C)c(CNC(=O)c2cn(-c3ccccc3C)c3ccccc23)c(O)n1` [Compound 113, N-((2-hydroxy-4,6-dimethylpyridin-3-yl)methyl)-1-(o-tolyl)-1H-indole-3-carboxamide] gave an IC50 (Y641N EZH2; [3]) of 1000 to 10000 nM and an IC50 (EZH2 (rPRC2); [4]) of 100 to 1000 nM.
In the case of `COc1ncc2c(C(=O)NCc3c(C)cc(C)nc3O)c(C)n([C@H](C)c3ccccc3)c2n1` [Compound 141, (R)—N-((2-hydroxy-4,6-dimethylpyridin-3-yl)methyl)-2-methoxy-6-methyl-7-(1-phenylethyl)-7H-pyrrolo[2,3-d]pyrimidine-5-carboxamide], the IC50 (Y641N EZH2; [1]) is reported as 1000 to 10000 nM and the IC50 (EZH2 (rPRC2); [2]) is reported as 100 to 1000 nM.
In the case of `COc1cc(C)[nH]c(=O)c1CNC(=O)c1c(C)n(C(C)C(OC)c2ccccc2)c2ncccc12` (stereo not shown) [Compound 265, 1-(1-methoxy-1-phenylpropan-2-yl)-N-((4-methoxy-6-methyl-2-oxo-1,2-dihydropyridin-3-yl)methyl)-2-methyl-1H-pyrrolo[2,3-b]pyridine-3-carboxamide], the IC50 (Y641N EZH2; [3]) is reported as 100 to 1000 nM and the IC50 (EZH2 (rPRC2); [4]) is reported as < 100 nM.
“(±)-N-((6-(hydroxymethyl)-4-methoxy-2-oxo-1,2-dihydropyridin-3-yl)methyl)-1-(1-methoxypropan-2-yl)-2-methyl-1H-pyrrolo[2,3-b]pyridine-3-carboxamide [Compound 262]” was tested, and the IC50 (Y641N EZH2; [3]) was 1000 to 10000 nM and the IC50 (EZH2 (rPRC2); [4]) was 100 to 1000 nM.
Compound `Cc1cc(C)c(CNC(=O)c2c(C)n(C(C)CN3CCOCC3)c3ncccc23)c(=O)[nH]1` (racemic) [Compound 237, (±)-N-((4,6-dimethyl-2-oxo-1,2-dihydropyridin-3-yl)methyl)-2-methyl-1-(1-morpholinopropan-2-yl)-1H-pyrrolo[2,3-b]pyridine-3-carboxamide] has an IC50 (Y641N EZH2; [1]) of 1000 to 10000 nM and an IC50 (EZH2 (rPRC2); [2]) of 100 to 1000 nM.
